# In patent publication US20240253033A1, “MICROFLUIDIC DETECTION SYSTEM WITH ADJUSTABLE FLOW CONTROL” (priority 2022, published 2024):
# Tests used:
# K. pneumonia [1] = assay: QolorAST minimum inhibitory concentration (MIC) test; format: cell-based, Klebsiella pneumoniae
# Procedure: (§1) Acinetobacter baumannii, Enterococcus faecalis, Enterococcus faecium, Streptococcus agalactiae, Enterobacter cloacae, Klebsiella pneumoniae, Streptococcus pneumoniae, E coli MG1655, and E coli Trimethoprim resistant were streaked on LB miller agar overnight at 37° C. and resuspended in water aliquot. Next, the bacterial concentration was determined using optical density technique. Subsequently, aliquots of different concentrations were prepared for the antibiotic susceptibility testing experiments in CamHB growth media.
# (§2) 5×10^5 CFU ml^−1 Oxacillin-resistant S. aureus aliquots were prepared using resazurin/oxacillin solution using different concentrations of oxacillin antibiotic (16 μg/mL, 32 μg/mL, and 64 μg/mL). 5×10^5 CFU ml^−1 Cipro.
# (§3) A minimum inhibitory concentration (MIC) was performed to study the QolorAST broad applicability in detecting bacterial resistance profiles and ensuring timely and efficient antimicrobial theraby. […] The antibiotics cover major bacterial inhibition mechanisms as inhibition of protein synthesis, cell wall synthesis, and/or DNA synthesis.
# (§4) QolorAST exploited two methodologies: Manual MIC (MA-MIC) and support vector machine MIC (SVM-MIC). […] The SVM-MIC was carried out with a rbf kernel that was optimized and trained to predict the color change of the preclinical images using our library of bacteria images collected under different conditions including images where color is changed, color transitioning, and no color change. The SVM successfully classified the condition's bacteria-antibiotic in the concentration range studied.
# S. pneumonia [2] = assay: as above; format: cell-based, Streptococcus pneumoniae
# Procedure: as §1, §2, §3, §4
# E coli = assay: Phenotypic QolorAST rapid AST (resazurin reduction); format: cell-based, Escherichia coli; conditions: 10^5 cfu/mL E coli, antibiotic concentrations, 0-60 min
# Procedure: (§5) Resistant E. coli, Oxacillin-resistant S. aureus, and Cipro. Resistant PA respectively was used. The aliquots were incubated at 37° C. different periods starting from 0 minutes incubation till 60 minutes with a time step of 5 minutes.
# (§6) Resistant PA respectively was used. The aliquots were incubated at 37° C. different periods starting from 0 minutes incubation until 60 minutes with a time step of 5 minutes.
# (§7) MRSA and PA respectively.
# E. cloacae [3] = assay: QolorAST minimum inhibitory concentration (MIC) test; format: cell-based, Enterobacter cloacae
# Procedure: as §1, §2, §3, §4
# A. baumannii [4] = assay: Conventional broth microdilution (BMD) MIC; format: cell-based, Acinetobacter baumannii
# Procedure: (§8) For clinical MIC, bacteria were streaked on LB agar overnight and resuspended in a water aliquot. The aliquot was measured, and the bacteria concentration was adjusted to of 10^6 CFU ml^−1 in LB media. A 96 well plate with an antibiotic gradient from 128 μg/ml to 0.125 μg/ml in a 2-fold concentration dilution step was prepared with a positive control with no antibiotics. Next, the bacteria were introduced to each well of the 96 well plate for a final bacteria concentration of 5×10^5 CFU ml^−1. The well plates were cultured overnight the minimum inhibitory concentration was determined as the antibiotic concentration that didn't show any signs of bacterial growth.
# A. baumannii [5] = assay: QolorAST minimum inhibitory concentration (MIC) test; format: cell-based, Acinetobacter baumannii
# Procedure: as §1, §2, §3, §4
# E. cloacae [6] = assay: Conventional broth microdilution (BMD) MIC; format: cell-based, Enterobacter cloacae
# Procedure: as §8
# S. pneumonia [7] = assay: Conventional broth microdilution (BMD) MIC; format: cell-based, Streptococcus pneumoniae
# Procedure: as §8
# K. pneumonia [8] = assay: Conventional broth microdilution (BMD) MIC; format: cell-based, Klebsiella pneumoniae
# Procedure: as §8
# MRSA [9] = assay: Phenotypic QolorAST rapid AST (resazurin reduction); format: cell-based, Staphylococcus aureus; conditions: 10^5 cfu/mL MRSA, antibiotic concentrations, 0-60 min
# Procedure: as §5, §6, §7
# MRSA [10] = assay: QolorAST minimum inhibitory concentration (MIC) test; format: cell-based, Staphylococcus aureus
# Procedure: (§9) Ampicillin-resistant E. coli strain mm294 was cultured overnight at 37° C. in Luria broth (LB) media supplemented with 100 μg/mL Ampicillin. […] Next, the bacterial concentration was determined by optical density technique using a Spectronic 21D spectrophotometer. Subsequently, aliquots of different concentrations were prepared for the antibiotic susceptibility testing experiments in LB media. Biotyper spectra (MALDI Bruker).
# as §2, §3, §4
# S. agalactiae [11] = assay: Conventional broth microdilution (BMD) MIC; format: cell-based, Streptococcus agalactiae
# Procedure: as §8
# S. agalactiae [12] = assay: QolorAST minimum inhibitory concentration (MIC) test; format: cell-based, Streptococcus agalactiae
# Procedure: as §1, §2, §3, §4
# MRSA [13] = assay: Conventional broth microdilution (BMD) MIC; format: cell-based, Staphylococcus aureus
# Procedure: as §8
# serum proteins = conditions: human serum; cited from earlier work
# Pseudomonas aeruginosa = assay: Phenotypic QolorAST rapid AST (resazurin reduction); format: cell-based; conditions: 10^5 cfu/mL PA, antibiotic concentrations, 0-60 min
# Procedure: as §5, §6, §7
# PA [14] = assay: Conventional broth microdilution (BMD) MIC; format: cell-based, Pseudomonas aeruginosa
# Procedure: as §8
# PA [15] = assay: QolorAST minimum inhibitory concentration (MIC) test; format: cell-based, Pseudomonas aeruginosa
# Procedure: as §9, §2, §3, §4
# E coli mm 294 = assay: QolorAST MIC test for E coli strains spiked in urine; format: cell-based, Escherichia coli; conditions: E coli mm 294 spiked in urine
# Procedure: To obtain spiked human samples, first human urine was centrifuged at 5000 rcf for 5 minutes to remove large particles. It was subsequently spiked with 5×10^5 CFU ml^−1 and mixed with a solution of Resazurin to a final concentration of 0.02%. No antibiotics were added for the control aliquots, 32 μg/mL Ampicillin was added for resistant aliquots and 16 μg/mL Kanamycin was added for susceptible aliquots. The aliquots were incubated at 37° C. different periods starting from 0 minutes incubation till 60 minutes with a time step of 5 minutes.
# According to the Infectious Diseases Society of America (IDSA), 105 CFU ml^−1 and 102 CFU ml^−1 were spiked in-vivo in urine, serum, and nasal swab of donors to simulate urinary tract infection, wound infection, and pneumonia by MRSA, respectively. Human urine was spiked with different concentrations of E. coli (FIG. 32D). As a control the healthy human biofluids were screened as received.
compound,measurement,setting,value
CC1(C)S[C@@H]2[C@H](NC(=O)[C@H](N)c3ccccc3)C(=O)N2[C@H]1C(=O)O [Ampicillin],MA-MIC/SVM-MIC/MIC Category,K. pneumonia [1],R/R/R
same,QolorAST MIC Manual (MA-MIC),K. pneumonia [1],> 128 µg/mL
same,QolorAST MIC SVM (SVM-MIC),K. pneumonia [1],128 µg/mL
same,relative susceptibility from MIC values,K. pneumonia [1],enhanced susceptibility to ampicillin over colistin
same,MA-MIC/SVM-MIC/MIC Category,S. pneumonia [2],R/R/R*
same,QolorAST MIC Manual (MA-MIC),S. pneumonia [2],> 128 µg/mL
same,QolorAST MIC SVM (SVM-MIC),S. pneumonia [2],> 128 µg/mL
same,QolorAST colour readout over incubation,E coli,consistent color change from blue to green
same,MA-MIC/SVM-MIC/MIC Category,E. cloacae [3],R/R/R
same,QolorAST MIC Manual (MA-MIC),E. cloacae [3],> 128 µg/mL
same,QolorAST MIC SVM (SVM-MIC),E. cloacae [3],> 128 µg/mL
same,Broth Microdilution MIC (MIC),A. baumannii [4],>128
same,MA-MIC/SVM-MIC/MIC Category,A. baumannii [5],R/R/R*
same,QolorAST MIC Manual (MA-MIC),A. baumannii [5],> 128 µg/mL
same,QolorAST MIC SVM (SVM-MIC),A. baumannii [5],> 128 µg/mL
same,MIC,A. baumannii [5]; both manually and through SVM,> 128 µg/mL
same,Broth Microdilution MIC (MIC),E. cloacae [6],>128
same,Broth Microdilution MIC (MIC),S. pneumonia [7],>128
same,Broth Microdilution MIC (MIC),K. pneumonia [8],>128
Cc1onc(-c2ccccc2)c1C(=O)N[C@@H]1C(=O)N2[C@@H]1SC(C)(C)[C@@H]2C(=O)O [Oxacillin],QolorAST colour readout over incubation,MRSA [9],consistent color change from blue to green
same,MA-MIC/SVM-MIC/MIC Category,MRSA [10],R/R/R
same,QolorAST MIC Manual (MA-MIC),MRSA [10],64 µg/mL
same,QolorAST MIC SVM (SVM-MIC),MRSA [10],64 µg/mL
same,resistance or susceptibility,MRSA [10],resistance
same,Broth Microdilution MIC (MIC),S. agalactiae [11],0.125
same,MA-MIC/SVM-MIC/MIC Category,S. agalactiae [12],S/S/S*
same,QolorAST MIC Manual (MA-MIC),S. agalactiae [12],0.125 µg/mL
same,QolorAST MIC SVM (SVM-MIC),S. agalactiae [12],0.125 µg/mL
same,resistance or susceptibility,S. agalactiae [12],susceptible
same,Broth Microdilution MIC (MIC),MRSA [13],64
same,drug bounded to serum proteins,serum proteins,93%
Gentamicin,QolorAST colour readout over incubation,Pseudomonas aeruginosa,consistent blue color
same,Broth Microdilution MIC (MIC),PA [14],0.5
same,MA-MIC/SVM-MIC/MIC Category,PA [15],S/S/S*
same,MIC outcomes,PA [15],0.5 µg/mL
same,QolorAST MIC Manual (MA-MIC),PA [15],0.5 µg/mL
same,QolorAST MIC SVM (SVM-MIC),PA [15],0.5 µg/mL
same,classification by clinical breakpoints,PA [15],susceptible
NC[C@H]1O[C@H](O[C@H]2[C@H](O)[C@@H](O[C@H]3O[C@H](CO)[C@@H](O)[C@H](N)[C@H]3O)[C@H](N)C[C@@H]2N)[C@H](O)[C@@H](O)[C@@H]1O [Kanamycin],MIC,E coli mm 294,8 µg/mL
